Measured values from paper PMC3928365, “Species-Selective Killing of Bacteria by Antimicrobial Peptide-PNAs” (PLoS ONE, 2014).

Experiments:
Experiment in all cases: Antibiotic disc susceptibility testing (BSAC method)
Details in all cases: antibiotic disks (Oxoid), amount per disc per antibiotic (5-30 μg)
K. pneumoniae = type: cell-based, Klebsiella pneumoniae
Method: (§1) Strains were tested with twenty different antibiotic disks (Oxoid, UK) representing the major classes of antimicrobial compounds. Tests were done according to the standardized disc susceptibility testing method of the British Society for Antimicrobial Chemotherapy, [37]. The minimum inhibitory concentration (MIC) of the peptide-PNA conjugants were determined using a method modified from Hacek et al and Friedman et al: Peptide-PNA conjugants, obtained as lyophilized powder (Panagene, Korea), were dissolved in ddH20. MIC assays were performed in an ultra low-bind (Costar, UK) polystyrene 96-well plate format in a final volume of 150 µl MMLB. An extended gradient of peptide-PNA concentrations was created by combining five sets of twofold serial dilutions from four starting concentrations (10, 4.8, 3.2 […]); giving 55 final peptide-PNA concentrations which extended over five rows of the 96-well plate. All cultures were incubated at 35°C for 16 h without shaking or agitation. Each peptide-PNA MIC calculation was performed in triplicate, each replicate representing a different starting colony. Mixed-culture experiments were conducted as above with a 1×10^4 CFU/ml starting inoculum. For growth curve analysis, 200 µl cultures were grown in a BioTek PowerWave HT spectrophotometer, under constant agitation at 37°C in a 96-well plate covered with a breathable film. Growth (OD550) was monitored every 5 mins, each experiment was performed in triplicate.

E. coli = type: cell-based, Escherichia coli
Method: as §1

S. Typhimurium = type: cell-based, Salmonella enterica serovar Typhimurium
Method: as §1

B. subtilis = type: cell-based, Bacillus subtilis
Method: as §1, with “For growth curve analysis, 200 µl cultures were grown in a BioTek PowerWave HT spectrophotometer, under constant agitation at 37°C in a 96-well plate covered with a breathable film.” left out

Molecule	Sensitive (S)/Resistant (R), K. pneumoniae (K. pneumoniae)	Sensitive (S)/Resistant (R), E. coli (E. coli)	Sensitive (S)/Resistant (R), S. Typhimurium (S. Typhimurium)	Sensitive (S)/Resistant (R), B. subtilis (B. subtilis)
NCC[C@H](O)C(=O)N[C@@H]1C[C@H](N)[C@@H](O[C@H]2O[C@H](CN)[C@@H](O)[C@H](O)[C@H]2O)[C@H](O)[C@H]1O[C@H]1O[C@H](CO)[C@@H](O)[C@H](N)[C@H]1O [Amikacin]	S	S	S	–
CC1(C)S[C@@H]2[C@H](NC(=O)[C@H](N)c3ccc(O)cc3)C(=O)N2[C@H]1C(=O)O [Amoxicillin]	R	S	S	–
CC[C@H]1OC(=O)[C@H](C)[C@@H](O[C@H]2C[C@@](C)(OC)[C@@H](O)[C@H](C)O2)[C@H](C)[C@@H](O[C@@H]2O[C@H](C)C[C@H](N(C)C)[C@H]2O)[C@](C)(O)C[C@@H](C)CN(C)[C@H](C)[C@@H](O)[C@]1(C)O [Azithromycin]	R	R	R	–
CC1=C(C(=O)O)N2C(=O)[C@@H](NC(=O)[C@H](N)c3ccccc3)[C@H]2SC1 [Cefalexin]	S	S	S	–
CO/N=C(\C(=O)N[C@@H]1C(=O)N2C(C(=O)O)=C(COC(C)=O)CS[C@H]12)c1csc(N)n1 [Cefotaxime]	S	S	S	–
CO/N=C(\C(=O)N[C@@H]1C(=O)N2C(C(=O)O)=C(COC(N)=O)CS[C@H]12)c1ccco1 [Cefuroxime]	S	S	S	–
CCC[C@@H]1C[C@@H](C(=O)N[C@@H]([C@H]2O[C@H](SC)[C@H](O)[C@@H](O)[C@H]2O)[C@H](C)Cl)N(C)C1 [Clindamycin]	R	R	R	–
CC[C@H]1OC(=O)[C@H](C)[C@@H](O[C@H]2C[C@@](C)(OC)[C@@H](O)[C@H](C)O2)[C@H](C)[C@@H](O[C@@H]2O[C@H](C)C[C@H](N(C)C)[C@H]2O)[C@](C)(O)C[C@@H](C)C(=O)[C@H](C)[C@@H](O)[C@]1(C)O [Erythromycin]	R	R	R	–
CN1CCN(c2c(F)cc3c(=O)c(C(=O)O)cn(CCF)c3c2F)CC1 [Fleroxacin]	S	S	–	–
CNC(C)C1CCC(N)C(OC2C(N)CC(N)C(OC3OCC(C)(O)C(NC)C3O)C2O)O1 (stereo not shown) [Gentamicin]	R	S	S	–
C[C@@H](O)[C@H]1C(=O)N2C(C(=O)O)=C(SCCN=CN)C[C@H]12 [Imipenem]	S	S	S	–
CCC[C@@H]1C[C@@H](C(=O)N[C@@H]([C@H]2O[C@H](SC)[C@H](O)[C@@H](O)[C@H]2O)[C@@H](C)O)N(C)C1 [Lincomycin]	R	R	R	–
COc1cccc(OC)c1C(=O)N[C@@H]1C(=O)N2[C@@H]1SC(C)(C)[C@@H]2C(=O)O [Methicillin]	R	S	S	–
CCn1cc(C(=O)O)c(=O)c2ccc(C)nc21 [Nalidixic acid]	S	S	S	–
CC1COc2c(N3CCN(C)CC3)c(F)cc3c(=O)c(C(=O)O)cn1c23 (stereo not shown) [Oflaxacin]	S	S	S	S
CCn1cc(C(=O)O)c(=O)c2cnc(N3CCNCC3)nc21 [Pipemidic acid]	S	S	S	–
[H]/N=C(/N)N[C@H]1[C@H](O)[C@@H](O)[C@H](O[C@@H]2O[C@@H](C)[C@](O)(C=O)[C@H]2O[C@@H]2O[C@@H](CO)[C@H](O)[C@@H](O)[C@@H]2NC)[C@@H](N/C(N)=N\[H])[C@@H]1O [Streptomycin]	S	R	S	–
COc1cc(Cc2cnc(N)nc2N)cc(OC)c1OC [Trimethoprim]	R	S	S	–
CN[C@H](CC(C)C)C(=O)N[C@H]1C(=O)N[C@@H](CC(N)=O)C(=O)N[C@H]2C(=O)N[C@H]3C(=O)N[C@H](C(=O)N[C@H](C(=O)O)c4cc(O)cc(O)c4-c4cc3ccc4O)[C@H](O)c3ccc(c(Cl)c3)Oc3cc2cc(c3O[C@@H]2O[C@H](CO)[C@@H](O)[C@H](O)[C@H]2O[C@H]2C[C@](C)(N)[C@H](O)[C@H](C)O2)Oc2ccc(cc2Cl)[C@H]1O [Vancomycin]	R	R	R	–
Neomycin	S	S	S	S
